Among the data in patent publication EP2058315A1, “1H-Furo[3,2-C]Pyrazoles active as aurora kinase inhibitors” (Nerviano Medical Sciences S.r.l., priority 2007, dated 2009) are IC50 values, retold here.

One assay has as its target T1, Aurora-2 (Homo sapiens, UniProt O14965).
T1 sequence (O14965 1-403): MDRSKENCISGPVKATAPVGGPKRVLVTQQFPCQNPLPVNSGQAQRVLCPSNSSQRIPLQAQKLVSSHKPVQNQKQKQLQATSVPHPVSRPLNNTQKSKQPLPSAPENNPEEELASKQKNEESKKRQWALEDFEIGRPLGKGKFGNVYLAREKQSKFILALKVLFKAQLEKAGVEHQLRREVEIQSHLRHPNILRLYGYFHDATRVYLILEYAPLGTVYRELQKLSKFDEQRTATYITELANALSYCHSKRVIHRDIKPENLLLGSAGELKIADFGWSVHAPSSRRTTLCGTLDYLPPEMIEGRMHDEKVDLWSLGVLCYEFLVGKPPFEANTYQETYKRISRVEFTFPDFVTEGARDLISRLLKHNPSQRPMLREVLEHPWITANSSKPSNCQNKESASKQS
As to the kind of experiment: Inhibition assay of Aurora-2 activity (SPA technology). The class given is biochemical. The procedure: The inhibiting activity and the potency of selected compounds is determined through a method of assay based on the use of the SPA technology (Amersham Pharmacia Biotech).
The assay consists of the transfer of radioactivity labelled phosphate moiety by the kinase to a biotinylated substrate. The resulting 33P-labelled biotinylated product is allowed to bind to streptavidin-coated SPA beads (biotin capacity 130 pmol/mg), and light emitted was measured in a scintillation counter.
Kinase reaction: 8 µM biotinylated peptide (4 repeats of LRRWSLG, commercially available from Sigma, catalogue no. L-3523), 10 µM ATP (0.5 uCi P^33γ-ATP), 7.5 ng Aurora 2, inhibitor in a final volume of 30 µl buffer (HEPES 50 mM pH 7.0, MgCl2 10 mM, 1 mM DTT, 0.2 mg/mL BSA, 3 µM orthovanadate) were added to each well of a 96 U bottom well plate. After 60 minutes at room temperature incubation, the reaction was stopped and biotinylated peptide captured by adding 100 µl of bead suspension.
Stratification: 100 µl of CsCl 5 M were added to each well and stood for 4 hours before radioactivity was counted in the Top-Count instrument.
IC50 determination: inhibitors were tested at different concentrations ranging from 0.0015 to 10 µM. Experimental data were analyzed by the computer program GraphPad Prizm using the four parameter logistic equation: y = bottom+(top-bottom)/(1+10^((logIC50-x)*slope)) where x is the logarithm of the inhibitor concentration, y is the response; y starts at bottom and goes to top with a sigmoid shape. Ki calculation: Experimental method: Reaction was carried out in buffer (10 mM Tris, pH 7.5, 10 mM MgCl2, 0.2 mg/mL BSA, 7.5 mM DTT) containing 3.7 nM enzyme, histone and ATP (constant ratio of cold/labeled ATP 1/3000). The reaction was stopped with EDTA and the substrate captured on phosphomembrane (Multiscreen 96 well plates from Millipore). After extensive washing, the multiscreen plates were read on a top counter. Control (time zero) for each ATP and histone concentrations was measured.

Assay [1] relates to human colon cancer cell line HCT-116. Kind of assay: In vitro cell proliferation assay. Format: cell-based. The settings on record: HCT-116, 72 hours of treatment, cell count, read-out: Cell Antiproliferation (HCT-116) IC50. The protocol:
The human colon cancer cell line HCT-116 was seeded at 5000 cells/cm^2 in 24 wells plate (Costar) using F12 medium (Gibco) supplemented with 10% FCS (EuroClone, Italy) 2 mM L-glutamine and 1% penicillin/streptomycin and maintained at 37°C, 5% CO2 and 96% relative humidity. The following day, plates were treated in duplicates with 5ul of an appropriate dilution of compounds starting from a 10 mM stock in DMSO. Two untreated control wells were included in each plate. After 72 hours of treatment, medium was withdrawn and cells detached from each well using 0.5 mL of 0.05% (w/v) Trypsin, 0,02% (w/v) EDTA (Gibco). Samples were diluted with 9.5 mL of Isoton (Coulter) and counted using a Multisizer 3 cell counter (Beckman Coulter). Data were evaluated as percent of the control wells: % of CTR = (Treated - Blank)/(Control - Blank).
IC50 values were calculated by LSW/Data Analysis using Microsoft Excel sigmoidal curve fitting. […] See, as an example, the following Table 1 reporting the experimental data of some representative compounds of the invention being tested as Aurora-2 kinase inhibitors (IC50 nM) and for their cell antiproliferative effect (IC50 nM), namely: • Compound (1) is 3-[(Thiophene-2-carbonyl)-amino]-1H-furo[3,2-c]pyrazole-5-carboxylic acid (1-methyl-1-phenyl-ethyl)-amide; • Compound (2) is 3-(4-Morpholin-4-ylmethyl-benzoylamino)-1H-furo[3,2-c]pyrazole-5-carboxylic acid[1-(2-fluoro-phenyl)-1-methyl-ethyl]-amide • Compound (3) is 3-[4-(4-Methyl-piperazin-1-yl)-benzoylamino]-1H-furo[3,2-c]pyrazole-5-carboxylic acid (1-phenyl-cyclopropyl)-amide Table 1

The mark [2] stands for this setting: 10 µM ATP, 60 minutes at room temperature, SPA, read-out: Aurora-2 inhibition IC50.
Where [3] appears, read: screened according to the methods of the pharmacology section, read-out: IC50values for Aur2 inhibition.

Read-outs that look alike come from different tables or passages of the source.

For `CN1CCN(c2ccc(C(=O)Nc3n[nH]c4cc(C(=O)NC5(c6ccccc6)CC5)oc34)cc2)CC1` [Compound 3, 3-[4-(4-Methyl-piperazin-1-yl)-benzoylamino]-1H-furo[3,2-c]pyrazole-5-carboxylic acid (1-phenyl-cyclopropyl)-amide], the IC50 was 4 nM on Aurora-2 (setting [2]); less than 10 nM at Aurora-2 (setting [3]); 4 nM in assay [1]; 4 to 10 nM in assay [1] (Homo sapiens, HCT-116, 72 h).

Consider `CC(C)(NC(=O)c1cc2[nH]nc(NC(=O)c3cccs3)c2o1)c1ccccc1` [Compound 1, 3-[(Thiophene-2-carbonyl)-amino]-1H-furo[3,2-c]pyrazole-5-carboxylic acid (1-methyl-1-phenyl-ethyl)-amide], for which the IC50 on Aurora-2 (setting [2]) was 3 nM; on Aurora-2 (setting [3]), less than 10 nM; in assay [1], 10 nM.

Take `CN1CCC(Oc2ccc(C(=O)Nc3n[nH]c4cc(C(=O)NC(C)(C)c5ccccc5)oc34)cc2)CC1` [Compound 30, N-(1-methyl-1-phenylethyl)-3-({4-[(1-methylpiperidin-4-yl)oxy]benzoyl}amino)-1H-furo[3,2-c]pyrazole-5-carboxamide]: on Aurora-2 (setting [3]), the IC50 is less than 10 nM.

As for `CC(C)(NC(=O)c1cc2[nH]nc(NC(=O)c3ccc(CN4CCOCC4)cc3)c2o1)c1ccccc1F` [Compound 2, 3-(4-Morpholin-4-ylmethyl-benzoylamino)-1H-furo[3,2-c]pyrazole-5-carboxylic acid[1-(2-fluoro-phenyl)-1-methyl-ethyl]-amide], the IC50 on Aurora-2 (setting [2]) was 1 nM; on Aurora-2 (setting [3]) it was less than 10 nM; in assay [1], 2 nM; in assay [1] (Homo sapiens, HCT-116, 72 h), 4 to 10 nM.

Take `CC(C)(NC(=O)c1cc2[nH]nc(NC(=O)c3ccc(CN4CCCC4)cc3)c2o1)c1ccccc1` [Compound 34, N-(1-methyl-1-phenylethyl)-3-{[4-(pyrrolidin-1-ylmethyl)benzoyl]amino}-1H-furo[3,2-c]pyrazole-5-carboxamide]: the IC50 on Aurora-2 (setting [3]) was less than 10 nM.

As for `O=C(Nc1n[nH]c2cc(C(=O)NC3(c4ccccc4)CCCC3)oc12)c1ccco1` [Compound 40, 3-(2-furoylamino)-N-(1-phenylcyclopentyl)-1H-furo[3,2-c]pyrazole-5-carboxamide], at Aurora-2 (setting [3]), the IC50 is less than 10 nM.

Consider `CN1CCN(Cc2ccc(C(=O)Nc3n[nH]c4cc(C(=O)NC(C)(C)c5ccccc5)oc34)cc2)CC1` [Compound 31, N-(1-methyl-1-phenylethyl)-3-({4-[(4-methylpiperazin-1-yl)methyl]benzoyl}amino)-1H-furo[3,2-c]pyrazole-5-carboxamide], for which the IC50 on Aurora-2 (setting [3]) was less than 10 nM.

As for `CC(C)(NC(=O)c1cc2[nH]nc(NC(=O)c3ccc(CN4CCCCC4)cc3)c2o1)c1ccccc1F` [Compound 74, N-[1-(2-fluorophenyl)-1-methylethyl]-3-{[4-(piperidin-1-ylmethyl)benzoyl]amino}-1H-furo[3,2-c]pyrazole-5-carboxamide], at Aurora-2 (setting [3]), the IC50 was less than 10 nM.

As for `Cn1ccc(C(=O)Nc2n[nH]c3cc(C(=O)NC(C)(C)c4ccccc4)oc23)n1` [Compound 56, N-(1-methyl-1-phenylethyl)-3-{[(1-methyl-1H-pyrazol-3-yl)carbonyl]amino}-1H-furo[3,2-c]pyrazole-5-carboxamide], at Aurora-2 (setting [3]), the IC50 was less than 10 nM.

In the case of `CC(C)(NC(=O)c1cc2[nH]nc(NC(=O)c3ccccc3)c2o1)c1ccccc1F` [Compound 72, 3-(benzoylamino)-N-[1-(2-fluorophenyl)-1-methylethyl]-1H-furo[3,2-c]pyrazole-5-carboxamide], on Aurora-2 (setting [3]), the IC50 is less than 10 nM.

`CC(C)(NC(=O)c1cc2[nH]nc(NC(=O)c3ccco3)c2o1)c1ccccc1F` [Compound 39, N-[1-(2-fluorophenyl)-1-methylethyl]-3-(2-furoylamino)-1H-furo[3,2-c]pyrazole-5-carboxamide]: the IC50 on Aurora-2 (setting [3]) was less than 10 nM.

For the compound `CC(C)(NC(=O)c1cc2[nH]nc(NC(=O)c3ccc(CN4CCCC4)cc3)c2o1)c1ccccc1F` [Compound 73, N-[1-(2-fluorophenyl)-1-methylethyl]-3-{[4-(pyrrolidin-1-ylmethyl)benzoyl]amino}-1H-furo[3,2-c]pyrazole-5-carboxamide], the IC50 on Aurora-2 (setting [3]) is less than 10 nM.

Turning to `CC(C)(NC(=O)c1cc2[nH]nc(NC(=O)c3ccc(OCCN4CCCC4)cc3)c2o1)c1ccccc1F` [Compound 69, N-[1-(2-fluorophenyl)-1-methylethyl]-3-{[4-(2-pyrrolidin-1-ylethoxy)benzoyl]amino}-1H-furo[3,2-c]pyrazole-5-carboxamide], the IC50 on Aurora-2 (setting [3]) is less than 10 nM.

For `Cc1ccoc1C(=O)Nc1n[nH]c2cc(C(=O)NC(C)(C)c3ccccc3)oc12` [Compound 53, 3-[(3-methyl-2-furoyl)amino]-N-(1-methyl-1-phenylethyl)-1H-furo[3,2-c]pyrazole-5-carboxamide], the IC50 on Aurora-2 (setting [3]) is less than 10 nM.

Take `CC(C)(NC(=O)c1cc2[nH]nc(NC(=O)c3ccc(CN4CCCCC4)cc3)c2o1)c1ccccc1` [Compound 59, N-(1-methyl-1-phenylethyl)-3-{[4-(piperidin-1-ylmethyl)benzoyl]amino}-1H-furo[3,2-c]pyrazole-5-carboxamide]: at Aurora-2 (setting [3]), the IC50 was less than 10 nM.

For the compound `Cn1cccc1C(=O)Nc1n[nH]c2cc(C(=O)NC(C)(C)c3ccccc3)oc12` [Compound 33, N-(1-methyl-1-phenylethyl)-3-{[(1-methyl-1H-pyrrol-2-yl)carbonyl]amino}-1H-furo[3,2-c]pyrazole-5-carboxamide], the IC50 at Aurora-2 (setting [3]) is less than 10 nM.

For the compound `CC(C)(NC(=O)c1cc2[nH]nc(NC(=O)c3ccc(F)cc3)c2o1)c1ccccc1` [Compound 4, 3-[(4-fluorobenzoyl)amino]-N-(1-methyl-1-phenylethyl)-1H-furo[3,2-c]pyrazole-5-carboxamide], at Aurora-2 (setting [3]), the IC50 is less than 10 nM.
